{
  "source": "patent US20160375006A1",
  "about": "“USES OF PARALOG-SELECTIVE INHIBITORS OF GSK3 KINASES” (priority 2012, published 2016)",
  "key": {"PDHK2": {"target": "PDHK2 (Homo sapiens, UniProt Q15119)", "protocol": "(§1) This was completed utilizing one of two assays depending on the kinase being examined.\n(§2) A solution of IMAP binding reagent (IMAP Screening Express kit; Molecular Devices) (60 μL) was added to each well and incubated for 30 minutes.\n(§3) A solution of termination buffer (QuickScout Screening assist MSA; Carna Biosciences) (60 μL) was added to each well. The entire reaction mixture was then applied to a LabChip3000 system (Caliper Life Science) and the product and substrate peptide peaks were separated and quantified.\n(§4) The assay utilized was identical to that of the single point inhibitory activity determination (MSA) but run in dose response. […] A solution of termination buffer (QuickScout Screening assist MSA; Carna Biosciences) (60 μL) was added to each well. The entire reaction mixture was then applied to a LabChip3000 system (Caliper Life Science) and the product and substrate peptide peaks were separated and quantified."}, "AMPKα1/β1/γ1": {"target": "AMPKα1/β1/γ1 (Homo sapiens, UniProt Q13131)", "description": "as §1\n(§5) The assay utilized was identical to that of the single point inhibitory activity determination (MSA) but run in dose response."}, "MAP2K1_Cascade": {"target": "MAP2K1_Cascade (Homo sapiens, UniProt Q02750)", "protocol": "as §1, §2, §3, §4"}, "HER4": {"target": "HER4 (Homo sapiens, UniProt Q15303)", "protocol": "as §1, §2, §3"}, "EGFR(d746-750/T790M)": {"target": "EGFR(d746-750/T790M) (Homo sapiens, UniProt P00533, DEL746-750/T790M)", "protocol": "as §1, §2, §3, §4"}, "p70S6Kβ": {"target": "p70S6Kβ (Homo sapiens, UniProt Q9UBS0)", "protocol": "as §1, §2, §3, §4"}, "PHKG2": {"target": "PHKG2 (Homo sapiens, UniProt P15735)", "protocol": "as §1, §2, §3"}, "IRR": {"target": "IRR (Homo sapiens, UniProt P14616)", "sequence (P14616 27-1297)": "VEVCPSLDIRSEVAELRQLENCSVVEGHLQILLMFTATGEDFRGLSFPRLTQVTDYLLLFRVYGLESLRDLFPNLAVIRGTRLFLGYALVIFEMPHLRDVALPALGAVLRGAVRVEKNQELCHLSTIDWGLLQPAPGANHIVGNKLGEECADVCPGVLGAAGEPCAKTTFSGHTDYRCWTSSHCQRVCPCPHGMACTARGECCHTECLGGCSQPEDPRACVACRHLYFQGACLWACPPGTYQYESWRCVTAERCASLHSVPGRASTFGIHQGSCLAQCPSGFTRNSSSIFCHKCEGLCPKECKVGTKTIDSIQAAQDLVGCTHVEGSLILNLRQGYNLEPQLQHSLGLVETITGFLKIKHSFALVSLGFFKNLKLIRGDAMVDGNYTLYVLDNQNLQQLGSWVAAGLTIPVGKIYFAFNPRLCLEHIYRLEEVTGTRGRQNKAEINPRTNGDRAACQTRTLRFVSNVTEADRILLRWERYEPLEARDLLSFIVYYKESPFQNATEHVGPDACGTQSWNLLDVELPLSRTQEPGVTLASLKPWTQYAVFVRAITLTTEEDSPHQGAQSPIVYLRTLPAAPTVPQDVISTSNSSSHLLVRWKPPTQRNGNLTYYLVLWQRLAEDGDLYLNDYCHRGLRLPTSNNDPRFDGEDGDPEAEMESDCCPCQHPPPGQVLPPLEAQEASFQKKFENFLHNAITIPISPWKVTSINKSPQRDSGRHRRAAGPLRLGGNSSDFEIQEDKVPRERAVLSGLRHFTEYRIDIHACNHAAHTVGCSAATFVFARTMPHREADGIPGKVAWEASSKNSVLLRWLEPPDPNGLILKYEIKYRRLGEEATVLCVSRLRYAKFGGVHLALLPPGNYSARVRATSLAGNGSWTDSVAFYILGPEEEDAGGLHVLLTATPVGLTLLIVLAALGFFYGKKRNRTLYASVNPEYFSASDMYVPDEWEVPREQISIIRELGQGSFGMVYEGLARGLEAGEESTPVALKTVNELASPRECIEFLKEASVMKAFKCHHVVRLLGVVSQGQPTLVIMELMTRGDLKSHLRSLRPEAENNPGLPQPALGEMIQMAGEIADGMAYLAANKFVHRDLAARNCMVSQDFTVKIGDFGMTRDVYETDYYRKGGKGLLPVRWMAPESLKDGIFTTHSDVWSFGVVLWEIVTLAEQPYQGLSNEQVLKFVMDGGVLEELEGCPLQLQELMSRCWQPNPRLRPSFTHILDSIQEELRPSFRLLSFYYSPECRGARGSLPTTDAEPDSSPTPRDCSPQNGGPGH", "protocol": "as §1, §2, §3, §4"}, "LCK": {"target": "LCK (Homo sapiens, UniProt P06239)", "protocol": "as §1, §2, §3, §4"}, "[1]": {"tested_on": "pGSK3α/β, β-catenin, CRMP2 in SH-SY5Y cells", "settings": "SH-SY5Y cells, 1, 5, 10 and 30 μM, 24 hours", "protocol": "The samples were incubated and gently rocked for 1 h before centrifuged at 12 000 g for 10 min. The supernatant total cell lysate was subject to subsequent western blot analysis. […] Membranes were incubated overnight with primary antibodies in a solution of Tris-buffered saline containing Tween 20 (TBST, Sigma) and 5% dry milk. Incubation of secondary antibodies was performed for 1 h at room temperature in a solution of 5% dry milk in TBST."}, "RSK4": {"target": "RSK4 (Homo sapiens, UniProt Q9UK32)", "protocol": "as §1, §2, §3"}, "AurA": {"target": "AurA (Homo sapiens, UniProt O14965)", "protocol": "as §1, §3, §5"}, "WNK1": {"target": "WNK1 (Homo sapiens, UniProt Q9H4A3)", "description": "as §1, §5"}, "[2]": {"tested_on": "protein synthesis in hippocampal slices", "settings": "Fmr1 knockout mice hippocampal slices, 10 μM", "protocol": "500 um hippocampal slices are recovered in ACSF for 3 hours, followed by incubation in GSK3ai or vehicle for an hour, with Actinomycin D (to block transcription) for the last half hour of drug incubation. Slices are then transferred to new chambers containing ACSF with drug/vehicle and S35 (a radiolabeled Met/Cys) for 30 minutes to measure protein synthesis. Slices are then processed and read in a scintillation counter to determine the rate of protein synthesis."}, "MLK2_Cascade": {"target": "MLK2_Cascade (Homo sapiens, UniProt Q02779)", "protocol": "as §1, §2, §3, §4"}, "FGFR4(N535K)": {"target": "FGFR4(N535K) (Homo sapiens, UniProt P22455, N535K)", "protocol": "as §1, §2, §3"}, "TRKC": {"target": "TRKC (Homo sapiens, UniProt Q16288)", "sequence (Q16288 32-839)": "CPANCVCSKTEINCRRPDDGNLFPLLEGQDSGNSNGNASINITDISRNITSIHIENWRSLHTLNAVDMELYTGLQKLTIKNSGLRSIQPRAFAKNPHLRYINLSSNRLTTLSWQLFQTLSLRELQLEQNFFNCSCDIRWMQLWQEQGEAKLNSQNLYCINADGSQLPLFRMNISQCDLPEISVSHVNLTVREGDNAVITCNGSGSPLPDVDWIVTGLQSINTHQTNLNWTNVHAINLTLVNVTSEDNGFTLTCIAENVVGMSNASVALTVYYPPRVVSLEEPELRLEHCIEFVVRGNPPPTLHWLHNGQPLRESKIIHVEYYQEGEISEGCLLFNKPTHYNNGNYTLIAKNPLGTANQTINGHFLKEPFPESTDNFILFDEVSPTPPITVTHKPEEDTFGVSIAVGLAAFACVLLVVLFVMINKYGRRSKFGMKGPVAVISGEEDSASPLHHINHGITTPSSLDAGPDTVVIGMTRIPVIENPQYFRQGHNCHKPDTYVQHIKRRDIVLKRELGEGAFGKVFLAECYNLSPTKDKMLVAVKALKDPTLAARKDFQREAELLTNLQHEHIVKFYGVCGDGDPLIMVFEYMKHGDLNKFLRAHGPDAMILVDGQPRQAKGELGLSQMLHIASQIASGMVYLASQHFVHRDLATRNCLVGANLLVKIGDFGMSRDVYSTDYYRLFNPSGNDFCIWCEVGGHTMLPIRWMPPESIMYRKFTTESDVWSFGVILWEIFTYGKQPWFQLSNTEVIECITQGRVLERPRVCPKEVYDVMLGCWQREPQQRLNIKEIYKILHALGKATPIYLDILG", "protocol": "as §1, §2, §3, §4"}, "SRC": {"target": "SRC (Homo sapiens, UniProt P12931)", "protocol": "as §1, §2, §3, §4"}, "CDC7/ASK": {"target": "CDC7/ASK (Homo sapiens, UniProt O00311)", "sequence (O00311 whole entry)": "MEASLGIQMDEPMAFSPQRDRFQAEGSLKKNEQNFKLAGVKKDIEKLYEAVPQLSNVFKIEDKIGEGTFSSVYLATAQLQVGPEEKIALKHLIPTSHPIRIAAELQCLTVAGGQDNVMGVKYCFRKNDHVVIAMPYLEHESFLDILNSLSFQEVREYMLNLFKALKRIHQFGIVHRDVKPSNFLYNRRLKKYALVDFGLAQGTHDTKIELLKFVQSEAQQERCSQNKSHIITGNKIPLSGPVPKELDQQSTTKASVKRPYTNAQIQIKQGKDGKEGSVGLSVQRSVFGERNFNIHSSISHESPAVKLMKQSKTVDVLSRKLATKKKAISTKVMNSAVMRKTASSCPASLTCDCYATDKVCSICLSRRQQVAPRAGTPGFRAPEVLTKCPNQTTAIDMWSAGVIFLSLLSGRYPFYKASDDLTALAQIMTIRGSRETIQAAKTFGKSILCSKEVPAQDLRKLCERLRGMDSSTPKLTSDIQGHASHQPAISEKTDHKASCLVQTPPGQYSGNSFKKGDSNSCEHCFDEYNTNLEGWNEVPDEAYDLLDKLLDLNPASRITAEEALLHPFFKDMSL", "sequence (Q9UBU7 whole entry partner)": "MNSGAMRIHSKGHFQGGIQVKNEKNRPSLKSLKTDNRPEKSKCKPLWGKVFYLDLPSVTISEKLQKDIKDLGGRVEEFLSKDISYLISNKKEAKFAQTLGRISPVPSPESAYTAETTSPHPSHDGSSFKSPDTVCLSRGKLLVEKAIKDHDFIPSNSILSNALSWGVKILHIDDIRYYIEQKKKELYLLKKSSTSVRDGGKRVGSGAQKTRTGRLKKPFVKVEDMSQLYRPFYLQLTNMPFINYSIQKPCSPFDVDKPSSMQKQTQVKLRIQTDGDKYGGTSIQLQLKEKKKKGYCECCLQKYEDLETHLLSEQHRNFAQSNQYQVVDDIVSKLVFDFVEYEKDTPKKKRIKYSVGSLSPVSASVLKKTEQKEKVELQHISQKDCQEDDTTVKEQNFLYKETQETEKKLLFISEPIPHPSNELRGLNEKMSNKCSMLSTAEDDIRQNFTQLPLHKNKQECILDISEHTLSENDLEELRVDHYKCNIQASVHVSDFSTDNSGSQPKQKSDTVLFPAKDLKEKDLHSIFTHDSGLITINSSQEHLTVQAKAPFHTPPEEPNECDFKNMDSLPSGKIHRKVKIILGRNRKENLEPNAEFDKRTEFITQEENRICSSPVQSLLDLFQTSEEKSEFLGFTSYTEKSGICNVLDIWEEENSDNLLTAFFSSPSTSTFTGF", "protocol": "as §1, §2, §3, §4"}, "PBK": {"target": "PBK (Homo sapiens, UniProt Q96KB5)", "protocol": "as §1, §2, §3, §4"}, "NEK9": {"target": "NEK9 (Homo sapiens, UniProt Q8TD19)", "protocol": "as §1, §2, §3, §4"}, "MST1": {"target": "MST1 (Homo sapiens, UniProt Q13043)", "sequence (Q13043 whole entry)": "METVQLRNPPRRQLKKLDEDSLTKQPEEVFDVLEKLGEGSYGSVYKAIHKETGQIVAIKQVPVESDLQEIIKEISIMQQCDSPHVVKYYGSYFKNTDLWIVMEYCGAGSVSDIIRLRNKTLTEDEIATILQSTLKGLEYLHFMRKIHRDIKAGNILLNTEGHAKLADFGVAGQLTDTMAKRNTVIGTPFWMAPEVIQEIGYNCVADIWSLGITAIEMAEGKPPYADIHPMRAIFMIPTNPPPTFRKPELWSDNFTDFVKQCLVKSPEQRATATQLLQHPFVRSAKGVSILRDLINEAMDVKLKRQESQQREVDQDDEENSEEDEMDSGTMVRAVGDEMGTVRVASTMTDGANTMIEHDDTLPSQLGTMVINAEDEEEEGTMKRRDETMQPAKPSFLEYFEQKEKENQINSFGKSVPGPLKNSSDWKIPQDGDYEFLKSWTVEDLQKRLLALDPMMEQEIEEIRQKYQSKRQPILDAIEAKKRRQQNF", "protocol": "as §1, §2, §3, §4"}, "SRPK2": {"target": "SRPK2 (Homo sapiens, UniProt P78362)", "sequence (P78362 whole entry)": "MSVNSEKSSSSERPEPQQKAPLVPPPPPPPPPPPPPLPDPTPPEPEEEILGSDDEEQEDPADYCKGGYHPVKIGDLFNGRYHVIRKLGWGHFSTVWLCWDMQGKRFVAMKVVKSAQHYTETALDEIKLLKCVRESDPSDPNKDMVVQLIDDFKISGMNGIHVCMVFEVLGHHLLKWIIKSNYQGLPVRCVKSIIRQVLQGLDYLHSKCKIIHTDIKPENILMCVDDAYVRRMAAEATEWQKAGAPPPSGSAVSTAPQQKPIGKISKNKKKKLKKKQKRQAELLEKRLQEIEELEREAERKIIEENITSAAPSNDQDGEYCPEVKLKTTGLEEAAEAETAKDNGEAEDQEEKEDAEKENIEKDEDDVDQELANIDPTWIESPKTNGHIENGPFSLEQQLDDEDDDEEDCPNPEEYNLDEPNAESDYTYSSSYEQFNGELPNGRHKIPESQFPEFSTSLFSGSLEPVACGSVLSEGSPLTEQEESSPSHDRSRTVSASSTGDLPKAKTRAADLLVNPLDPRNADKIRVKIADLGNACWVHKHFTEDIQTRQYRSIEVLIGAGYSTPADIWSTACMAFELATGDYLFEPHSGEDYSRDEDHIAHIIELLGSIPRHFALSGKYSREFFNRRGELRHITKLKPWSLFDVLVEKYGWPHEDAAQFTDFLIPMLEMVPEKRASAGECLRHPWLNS", "protocol": "as §2, §3, §4"}, "[3]": {"tested_on": "audiogenic seizure phenotype", "settings": "Fmr1 KO mice, single dose 30 mg/kg i.p."}, "MAPKAPK3": {"target": "MAPKAPK3 (Homo sapiens, UniProt Q16644)", "protocol": "as §1, §2, §3, §4"}, "WEE1": {"target": "WEE1 (Homo sapiens, UniProt P30291)"}, "TTK": {"target": "TTK (Homo sapiens, UniProt P33981)"}, "MET(D1228H)": {"target": "MET(D1228H) (Homo sapiens, UniProt P08581, D1228H)"}, "BMPR1A": {"target": "BMPR1A (Homo sapiens, UniProt P36894)"}, "LKB1": {"target": "LKB1 (Homo sapiens, UniProt Q15831)"}, "PLK4": {"target": "PLK4 (Homo sapiens, UniProt O00444)"}, "MET(M1250T)": {"target": "MET(M1250T) (Homo sapiens, UniProt P08581, M1250T)"}, "KIT(D816E)": {"target": "KIT(D816E) (Homo sapiens, UniProt P10721, D816E)"}, "LIMK1": {"target": "T1, LIMK1 (Homo sapiens, UniProt P53667)", "T1 construct": "purchased Carna Biosciences", "assay": "Carna kinase panel", "format": "biochemical", "protocol": "as §1, §2, §3"}, "GSK3α": {"target": "GSK3α (Homo sapiens, UniProt P49840)", "sequence (P49840 whole entry)": "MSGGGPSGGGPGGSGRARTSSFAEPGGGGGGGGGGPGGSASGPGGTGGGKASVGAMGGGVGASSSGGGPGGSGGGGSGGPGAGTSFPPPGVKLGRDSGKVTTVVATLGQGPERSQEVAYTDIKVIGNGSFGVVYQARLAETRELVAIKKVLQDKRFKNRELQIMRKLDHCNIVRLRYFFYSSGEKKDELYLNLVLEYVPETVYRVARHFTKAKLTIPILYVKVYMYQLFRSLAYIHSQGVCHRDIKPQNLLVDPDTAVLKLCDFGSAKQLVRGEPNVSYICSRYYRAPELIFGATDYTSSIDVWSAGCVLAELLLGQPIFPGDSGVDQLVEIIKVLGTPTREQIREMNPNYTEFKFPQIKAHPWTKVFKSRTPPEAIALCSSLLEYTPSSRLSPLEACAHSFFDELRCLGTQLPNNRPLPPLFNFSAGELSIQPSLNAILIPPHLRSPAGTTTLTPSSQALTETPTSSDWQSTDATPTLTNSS", "protocol": "as §1, §2, §3, §4"}},
  "data": [
    {"smiles": "CC[C@@]1(c2ccccc2)C2=C(CC(C)(C)CC2=O)Nc2n[nH]cc21", "note": "[BRD0705]", "values": [
      {"measurement": "% Inhibition at 10 μM", "setting": "PDHK2", "value": "−0.5", "unit": "%"},
      {"measurement": "% Inhibition at 10 μM", "setting": "AMPKα1/β1/γ1", "value": "−4.1", "unit": "%"},
      {"measurement": "% Inhibition at 10 μM", "setting": "MAP2K1_Cascade", "value": 3.0, "unit": "%"},
      {"measurement": "% Inhibition at 10 μM", "setting": "HER4", "value": 1.3, "unit": "%"},
      {"measurement": "% Inhibition at 10 μM", "setting": "EGFR(d746-750/T790M)", "value": "−3.5", "unit": "%"},
      {"measurement": "% Inhibition at 10 μM", "setting": "p70S6Kβ", "value": "−2.1", "unit": "%"},
      {"measurement": "% Inhibition at 10 μM", "setting": "PHKG2", "value": "−5.8", "unit": "%"},
      {"measurement": "% Inhibition at 10 μM", "setting": "IRR", "value": 4.0, "unit": "%"},
      {"measurement": "% Inhibition at 10 μM", "setting": "LCK", "value": 5.0, "unit": "%"},
      {"measurement": "pGSK3αY279 level (Western blot)", "setting": "[1]", "value": "dose dependent decrease"},
      {"measurement": "pGSK3βY216 and β-catenin levels (Western blot)", "setting": "[1]", "value": "without effecting"},
      {"measurement": "% Inhibition at 10 μM", "setting": "RSK4", "value": 1.1, "unit": "%"},
      {"measurement": "% Inhibition at 10 μM", "setting": "AurA", "value": 6.1, "unit": "%"},
      {"measurement": "% Inhibition at 10 μM", "setting": "WNK1", "value": "−4.2", "unit": "%"},
      {"measurement": "Excess protein synthesis", "setting": "[2]", "value": "correction of excess protein synthesis"},
      {"measurement": "% Inhibition at 10 μM", "setting": "MLK2_Cascade", "value": 2.1, "unit": "%"},
      {"measurement": "% Inhibition at 10 μM", "setting": "FGFR4(N535K)", "value": 22.1, "unit": "%"},
      {"measurement": "% Inhibition at 10 μM", "setting": "TRKC", "value": 6.4, "unit": "%"},
      {"measurement": "% Inhibition at 10 μM", "setting": "SRC", "value": 3.2, "unit": "%"},
      {"measurement": "% Inhibition at 10 μM", "setting": "CDC7/ASK", "value": "−7.2", "unit": "%"},
      {"measurement": "% Inhibition at 10 μM", "setting": "PBK", "value": "−8.0", "unit": "%"},
      {"measurement": "% Inhibition at 10 μM", "setting": "NEK9", "value": 3.5, "unit": "%"},
      {"measurement": "% Inhibition at 10 μM", "setting": "MST1", "value": "−7.3", "unit": "%"},
      {"measurement": "% Inhibition at 10 μM", "setting": "SRPK2", "value": "−2.5", "unit": "%"},
      {"measurement": "Audiogenic seizure phenotype", "setting": "[3]", "value": "reduces audiogenic seizures"},
      {"measurement": "% Inhibition at 10 μM", "setting": "MAPKAPK3", "value": "−8.3", "unit": "%"}
    ]},
    {"smiles": "CC(C)(C)Cc1[nH]nc2c1[C@](C)(c1ccccc1)C1=C(CC(C)(C)CC1=O)N2", "note": "[BRD3731]", "values": [
      {"measurement": "% Inhibition 10 μM", "setting": "PDHK2; 10 μM", "value": 12.7, "unit": "%"},
      {"measurement": "% Inhibition 10 μM", "setting": "WEE1", "value": "−9.1", "unit": "%"},
      {"measurement": "% Inhibition 10 μM", "setting": "AMPKα1/β1/γ1; 10 μM", "value": 11.2, "unit": "%"},
      {"measurement": "% Inhibition 10 μM", "setting": "MAP2K1_Cascade; 10 μM", "value": 3.1, "unit": "%"},
      {"measurement": "% Inhibition 10 μM", "setting": "TTK", "value": 5.4, "unit": "%"},
      {"measurement": "% Inhibition 10 μM", "setting": "HER4; 10 μM", "value": 6.5, "unit": "%"},
      {"measurement": "% Inhibition 10 μM", "setting": "EGFR(d746-750/T790M); 10 μM", "value": 3.7, "unit": "%"},
      {"measurement": "% Inhibition 10 μM", "setting": "p70S6Kβ; 10 μM", "value": 12.6, "unit": "%"},
      {"measurement": "% Inhibition 10 μM", "setting": "PHKG2; 10 μM", "value": 6.0, "unit": "%"},
      {"measurement": "% Inhibition 10 μM", "setting": "MET(D1228H)", "value": 0.0, "unit": "%"},
      {"measurement": "% Inhibition 10 μM", "setting": "IRR; 10 μM", "value": 6.2, "unit": "%"},
      {"measurement": "% Inhibition 10 μM", "setting": "BMPR1A", "value": "−4.4", "unit": "%"},
      {"measurement": "% Inhibition 10 μM", "setting": "LCK; 10 μM", "value": 9.2, "unit": "%"},
      {"measurement": "% Inhibition 10 μM", "setting": "RSK4; 10 μM", "value": 33.9, "unit": "%"},
      {"measurement": "% Inhibition 10 μM", "setting": "AurA; 10 μM", "value": 15.4, "unit": "%"},
      {"measurement": "% Inhibition 10 μM", "setting": "LKB1", "value": 3.4, "unit": "%"},
      {"measurement": "% Inhibition 10 μM", "setting": "WNK1; 10 μM", "value": "−1.0", "unit": "%"},
      {"measurement": "% Inhibition 10 μM", "setting": "MLK2_Cascade; 10 μM", "value": 0.3, "unit": "%"},
      {"measurement": "% Inhibition 10 μM", "setting": "PLK4", "value": 14.3, "unit": "%"},
      {"measurement": "% Inhibition 10 μM", "setting": "MET(M1250T)", "value": 0.8, "unit": "%"},
      {"measurement": "% Inhibition 10 μM", "setting": "KIT(D816E)", "value": 3.9, "unit": "%"},
      {"measurement": "% Inhibition 10 μM", "setting": "TRKC; 10 μM", "value": 12.1, "unit": "%"},
      {"measurement": "% Inhibition 10 μM", "setting": "SRC; 10 μM", "value": 1.0, "unit": "%"},
      {"measurement": "% Inhibition 10 μM", "setting": "CDC7/ASK; 10 μM", "value": "−3.1", "unit": "%"},
      {"measurement": "% Inhibition 10 μM", "setting": "PBK; 10 μM", "value": 0.6, "unit": "%"},
      {"measurement": "% Inhibition 10 μM", "setting": "NEK9; 10 μM", "value": 2.9, "unit": "%"},
      {"measurement": "% Inhibition 10 μM", "setting": "MST1; 10 μM", "value": 3.9, "unit": "%"},
      {"measurement": "% Inhibition 10 μM", "setting": "SRPK2; 10 μM", "value": 6.4, "unit": "%"},
      {"measurement": "% Inhibition 10 μM", "setting": "LIMK1", "value": 7.5, "unit": "%"},
      {"measurement": "% Inhibition 10 μM", "setting": "GSK3α", "value": 96.8, "unit": "%"},
      {"measurement": "Fold Selectivity", "setting": "GSK3α", "value": 7.8, "unit": "fold"},
      {"measurement": "IC50", "setting": "GSK3α", "value": 211, "unit": "nM"},
      {"measurement": "% Inhibition 10 μM", "setting": "MAPKAPK3; 10 μM", "value": 6.0, "unit": "%"}
    ]}
  ]
}
